This experiment relates to Sprague-Dawley rats. Description: Citrate in rats with ischemia/reperfusion injury or sham operation on a high phosphate diet with intermittent dehydration. The following applies: day 60. The class given is in vivo, rat. As to the method:
A total of 48 male and female Sprague-Dawley rats (150-200 g body weight at start of experiment) were divided in eight groups (A to H) containing 6 animals each (Table 1). On day 1 of the experiment groups A, B, E and F got 30 minutes of bilateral renal ischemia reperfusion injury, while control groups C, D, G and H were sham operated (12) (Table 1). The rats were given 48 hours to recover and BUN and serum creatinine levels were then determined.
On day 3 all groups (A to H) were put on a high phosphorus diet (NIH-07 diet, see reference #6) for 60 days. All groups were dehydrated for 8 hours once a week. While groups B, D, F and H received citrate (2% wt) in their drinking water, the other groups had access to regular tap water, except during periods of dehydration. As rats typically consume a daily average of 10 ml of water per 100 g of body weight, each rat of groups B, D, F and H received an approximate daily dosage of 2 g of citrate per kg of body weight.
On day 30 arterial blood samples were collected for pH, BUN and serum creatinine measurements.
On day 60 all animals were sacrificed. Arterial blood samples were collected for serum pH, phosphorus, BUN and creatinine measurements. Bladder urine samples were collected for pH measurements. Kidneys were longitudinally dissected, formalin fixed and paraffin embedded for generation of light microscopic sections. Additional paraffin embedded tissue sections were stained with “von Kossa” stain for calcium crystal identification and LM tissue sections were scored for acute tubular injury as described elsewhere.
Statistically significant differences between experimental groups were determined using Bonferroni t-tests and analysis of variance.

In the case of `O=C(O)CC(O)(CC(=O)O)C(=O)O` [citrate], the “Decrease of serum phosphorus levels” value (all groups (male/female, I/R or sham), high phosphate diet, citrate in drinking water) amounted to 30%. Besides, for the setting “all study groups”, the “Effect on serum pH” value is “did not have a significant effect” and the “Effect on urine pH” value is given as “did not have a significant effect”. The “Histology: tubular injury, casts and calcium phosphate crystals” value (female I/R rats with citrate supplementation) was “focal tubular dilation but no casts and no calcium phosphate crystals”. Besides, the “Histology: tubular morphology” value (female sham operated rats, without vs with citrate) is on record as “no significant difference in tubular morphology”. Further, the “Histology: morphologic changes of ATN” value (male I/R rats with citrate supplementation) is “markedly reversed”. The “Serum BUN levels (renal function)” value (male and female rats with I/R, high phosphate diet, citrate 2% wt in drinking water) is listed as “returned BUN levels to near control values”. Further, the “Histology: tubular injury and cast formation” value (male sham operated rats with citrate supplementation) is “markedly decreased tubular injury and cast formation”.
